Where two headings read alike, the source gives them in different places.
How the values were obtained:
[1] = target: T1, RAF kinases (Homo sapiens, UniProt P15056); details: read-out: BRAF WT Kd; BRAF WT
[2] = target: T2, RAF kinases (Homo sapiens, UniProt P15056, V600E); details: read-out: BRAF V600E Kd; BRAF V600E
[3] = test system: 290 distinct kinases tested excluding mutant variants (321 in the larger panel)
Experimental: Competition binding assays used herein were developed, validated and performed as described in Fabian et al., Nature Biotechnology 2005, 23, 329-336. […] The liganded beads were blocked with excess biotin and washed with blocking buffer (SeaBlock (Pierce), 1% BSA, 0.05% Tween 20, 1 mM DTT) to remove unbound ligand and to reduce non-specific binding. […] Test compounds were prepared as 100× stocks in DMSO and rapidly diluted into the aqueous environment. DMSO was added to control assays lacking a test compound. Primary screen interactions were performed in polypropylene 384-well plates in a final volume of 34 μt, while Kd determinations were performed in polystyrene 96-well plates in a final volume of 135 pt. […] The kinase concentration in the eluates was measured by quantitative PCR. Each kinase was tested individually against each compound. Kds were determined using eleven serial threefold dilutions. A selectivity score, which is a quantitative measure of selectivity of a compound against a panel of enzymes, may be calculated for a compound by dividing the number of enzymes for which a compound meets a set criteria, (for example, a binding constant of 100 nM or less), by the total number of enzymes tested. […] (Note, for those compounds tested in a larger kinase panel, as indicated by an asterisk (*) next to the S35 score, the divisor is 321 (i.e. the larger panel contains 321 distinct kinases, excluding mutant variants.)).

[4] = test system: MEK1 phosphorylation in the A375 human melanoma cell line; experiment: cells; details: A-375, read-out: pMEK IC50
[5] = test system: A375 cells; experiment: cells; details: Homo sapiens, A-375, read-out: A375 Viability EC50
[6] = target: T3, RAF kinases (Homo sapiens, UniProt P04049); experiment: biochemical
[7] = target: T3, RAF kinases; details: read-out: RAF1 Kd; RAF1
[8] = target: T2, RAF kinases; experiment: biochemical
[9] = target: T1, RAF kinases; experiment: biochemical
[10] = no asterisk: panel of 290 distinct kinases

T1 sequence (P15056 whole entry): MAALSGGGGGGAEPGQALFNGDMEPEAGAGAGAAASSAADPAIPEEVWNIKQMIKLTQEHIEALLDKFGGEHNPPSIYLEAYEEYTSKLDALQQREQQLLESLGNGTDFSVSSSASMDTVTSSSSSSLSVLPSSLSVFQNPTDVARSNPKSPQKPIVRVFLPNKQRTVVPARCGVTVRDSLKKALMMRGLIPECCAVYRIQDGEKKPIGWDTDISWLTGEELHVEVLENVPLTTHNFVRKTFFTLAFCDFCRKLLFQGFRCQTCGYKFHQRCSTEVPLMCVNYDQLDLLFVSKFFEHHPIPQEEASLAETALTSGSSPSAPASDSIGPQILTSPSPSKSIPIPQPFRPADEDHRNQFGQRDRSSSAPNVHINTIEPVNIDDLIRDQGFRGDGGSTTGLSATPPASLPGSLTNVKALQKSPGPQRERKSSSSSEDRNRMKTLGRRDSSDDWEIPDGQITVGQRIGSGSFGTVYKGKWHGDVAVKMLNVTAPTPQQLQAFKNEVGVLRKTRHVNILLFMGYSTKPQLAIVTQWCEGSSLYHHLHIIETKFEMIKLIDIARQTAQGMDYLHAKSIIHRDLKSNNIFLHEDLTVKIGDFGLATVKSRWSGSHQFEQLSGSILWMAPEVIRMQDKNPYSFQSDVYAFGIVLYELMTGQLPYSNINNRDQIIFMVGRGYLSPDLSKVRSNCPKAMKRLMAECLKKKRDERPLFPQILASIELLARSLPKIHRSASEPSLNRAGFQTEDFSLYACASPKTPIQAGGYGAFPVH
T3 sequence (P04049 whole entry): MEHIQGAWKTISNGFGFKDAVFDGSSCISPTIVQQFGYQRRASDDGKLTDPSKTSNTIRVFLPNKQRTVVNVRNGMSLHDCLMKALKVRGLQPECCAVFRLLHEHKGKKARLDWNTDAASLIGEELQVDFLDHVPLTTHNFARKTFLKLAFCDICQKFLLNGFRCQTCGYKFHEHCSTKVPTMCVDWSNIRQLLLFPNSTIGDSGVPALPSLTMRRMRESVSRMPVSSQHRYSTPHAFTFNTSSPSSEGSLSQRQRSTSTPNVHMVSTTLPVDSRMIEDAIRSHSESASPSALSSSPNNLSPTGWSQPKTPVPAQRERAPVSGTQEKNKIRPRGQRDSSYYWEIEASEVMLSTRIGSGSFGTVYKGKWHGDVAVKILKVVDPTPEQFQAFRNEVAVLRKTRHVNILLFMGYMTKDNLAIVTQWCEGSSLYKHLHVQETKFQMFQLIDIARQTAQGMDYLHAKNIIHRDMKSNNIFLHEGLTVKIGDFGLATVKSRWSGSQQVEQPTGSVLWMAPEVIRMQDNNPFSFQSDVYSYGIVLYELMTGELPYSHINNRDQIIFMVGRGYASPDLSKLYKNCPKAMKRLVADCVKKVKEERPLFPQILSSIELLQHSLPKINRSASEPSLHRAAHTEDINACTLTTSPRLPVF
T2 sequence (P15056 whole entry V600E): as the sequence (P15056 whole entry) above, with V600E counted along it

| Structure (SMILES) | Kd [1] | Kd [2] | S35 [3, 10] | IC50 [4] | EC50 [5] | Kd [6] | Kd [7] | Kd [8] | Kd [9] | S35 ([3]; asterisk: panel of 321 distinct kinases) |
| --- | --- | --- | --- | --- | --- | --- | --- | --- | --- | --- |
| COc1ccc(-n2nc(C(C)(F)F)cc2NC(=O)Nc2cccc(Oc3ncnc4cc(OC)c(OC)cc34)c2)cc1 [Ex 315, 1-(3-(1,1-difluoroethyl)-1-(4-methoxyphenyl)-1H-pyrazol-5-yl)-3-(3-(6,7-dimethoxyquinazolin-4-yloxy)phenyl)urea] | > 1000 nM | < 250 nM | D (D > 0.40) | < 250 nM | < 250 nM | 500 to 1000 nM |  |  |  |  |
| COc1ccc(-n2nc(C(C)C)cc2NC(=O)Nc2cccc(Oc3ncnc4cc(OC)c(OC)cc34)c2)cc1 [Ex 348, 1-(3-(6,7-dimethoxyquinazolin-4-yloxy)phenyl)-3-(3-isopropyl-1-(4-methoxyphenyl)-1H-pyrazol-5-yl)urea] | > 1000 nM | < 250 nM | D (D > 0.40) | < 250 nM | < 250 nM | 500 to 1000 nM |  |  |  |  |
| COc1ccc(-n2nc(C(C)C)cc2NC(=O)Nc2cccc(Sc3ncnc4cc(OC)c(OC)cc34)c2)cc1 [Ex 349, 1-(3-(6,7-dimethoxyquinazolin-4-ylthio)phenyl)-3-(3-isopropyl-1-(4-methoxyphenyl)-1H-pyrazol-5-yl)urea] | > 1000 nM | < 250 nM | C (0.20 < C ≦ 0.40) | < 250 nM | < 250 nM | 500 to 1000 nM |  |  |  |  |
| COc1cc2ncnc(Oc3cccc(NC(=O)Nc4cc(C(C)(C)C)nn4C4CCCCC4)c3)c2cc1OC [Ex 330, 1-(3-tert-butyl-1-cyclohexyl-1H-pyrazol-5-yl)-3-(3-(6,7-dimethoxyquinazolin-4-yloxy)phenyl)urea] | > 1000 nM | < 250 nM | C (0.20 < C ≦ 0.40) | > 1000 nM | > 1000 nM |  | > 1000 nM |  |  |  |
| COc1cc2ncnc(Oc3cccc(NC(=O)Nc4cc(C(C)(C)C)nn4-c4ccccc4Cl)c3)c2cc1OC [Ex 340, 1-(3-tert-butyl-1-(2-chlorophenyl)-1H-pyrazol-5-yl)-3-(3-(6,7-dimethoxyquinazolin-4-yloxy)phenyl)urea] | > 1000 nM |  | D (D > 0.40) | < 250 nM |  |  | > 1000 nM | 250 to 500 nM |  |  |
| CCn1nc(C(C)(C)C)cc1NC(=O)Nc1cccc(Sc2ncnc3cc(OC)c(OC)cc23)c1 [Ex 321, 1-(3-tert-butyl-1-ethyl-1H-pyrazol-5-yl)-3-(3-(6,7-dimethoxyquinazolin-4-ylthio)phenyl)urea] |  | < 250 nM | C (0.20 < C ≦ 0.40) | 250 to 500 nM | 500 to 1000 nM |  | < 250 nM |  | 250 to 500 nM |  |
| COc1cc2ncnc(Oc3cccc(NC(=O)Nc4cc(C(C)(F)F)nn4-c4cncc(F)c4)c3)c2cc1OC [Ex 316, 1-(3-(1,1-difluoroethyl)-1-(5-fluoropyridin-3-yl)-1H-pyrazol-5-yl)-3-(3-(6,7-dimethoxyquinazolin-4-yloxy)phenyl)urea] |  | < 250 nM | C (0.20 < C ≦ 0.40) | 250 to 500 nM | 500 to 1000 nM |  | < 250 nM |  | 250 to 500 nM |  |
| COc1cc2ncnc(Oc3cccc(NC(=O)Nc4cc(C(C)C)nn4-c4cccnc4)c3)c2cc1OC [Ex 350, 1-(3-(6,7-dimethoxyquinazolin-4-yloxy)phenyl)-3-(3-isopropyl-1-(pyridin-3-yl)-1H-pyrazol-5-yl)urea] | < 250 nM | < 250 nM | D (D > 0.40) | 250 to 500 nM | 250 to 500 nM |  | < 250 nM |  |  |  |
| CCc1cc(NC(=O)Nc2cccc(Oc3ncnc4cc(OC)c(OC)cc34)c2)n(-c2ccccc2)n1 [Ex 352, 1-(3-(6,7-dimethoxyquinazolin-4-yloxy)phenyl)-3-(3-ethyl-1-phenyl-1H-pyrazol-5-yl)urea] | < 250 nM | < 250 nM | C (0.20 < C ≦ 0.40) | 500 to 1000 nM | 250 to 500 nM |  | < 250 nM |  |  |  |
| COc1cc2ncnc(Oc3cccc(NC(=O)Nc4cc(C(C)(C)C)nn4-c4ccccn4)c3)c2cc1OC [Ex 344, 1-(3-tert-Butyl-1-(pyridin-2-yl)-1H-pyrazol-5-yl)-3-(3-(6,7-dimethoxyquinazolin-4-yloxy)phenyl)urea] | > 1000 nM |  | C (0.20 < C ≦ 0.40) | 500 to 1000 nM |  |  | > 1000 nM | 500 to 1000 nM |  |  |
| COc1cc2ncnc(Sc3cccc(NC(=O)Nc4cc(C(C)(C)C(F)(F)F)nn4-c4ccccc4)c3)c2cc1OC [Ex 307, 1-(3-(6,7-dimethoxyquinazolin-4-ylthio)phenyl)-3-(1-phenyl-3-(1,1,1-trifluoro-2-methylpropan-2-yl)-1H-pyrazol-5-yl)urea] | > 1000 nM |  | D (D > 0.40) | < 250 nM |  |  | > 1000 nM | 250 to 500 nM |  |  |
| COc1cc2ncnc(Sc3cccc(NC(=O)Nc4cc(C(F)(F)F)nn4-c4ccc(C)cc4)c3)c2cc1OC [Ex 199, 1-[3-(6,7-dimethoxyquinazolin-4-ylthio)phenyl]-3-[1-p-tolyl-3-(trifluoromethyl)-1H-pyrazol-5-yl]urea] |  |  |  | < 250 nM | > 1000 nM | > 1000 nM |  | > 1000 nM | > 1000 nM | D* (D > 0.40) |
| COc1cc2ncnc(Sc3cccc(NC(=O)Nc4cc(C(C)(C)C)nn4-c4ccccc4Cl)c3)c2cc1OC [Ex 341, 1-(3-tert-butyl-1-(2-chlorophenyl)-1H-pyrazol-5-yl)-3-(3-(6,7-dimethoxyquinazolin-4-ylthio)phenyl)urea] | > 1000 nM |  | C (0.20 < C ≦ 0.40) | < 250 nM |  |  | > 1000 nM | 250 to 500 nM |  |  |
| COc1cc2ncnc(Sc3cccc(NC(=O)Nc4cc(C5CC5)nn4-c4ccccc4)c3)c2cc1OC [Ex 354, 1-(3-cyclopropyl-1-phenyl-1H-pyrazol-5-yl)-3-(3-(6,7-dimethoxyquinazolin-4-ylthio)phenyl)urea] | < 250 nM | < 250 nM | C (0.20 < C ≦ 0.40) | 250 to 500 nM | 250 to 500 nM |  | < 250 nM |  |  |  |
| COc1cc2ncnc(Oc3cccc(NC(=O)Nc4cc(C5CC5)nn4-c4ccccc4)c3)c2cc1OC [Ex 353, 1-(3-cyclopropyl-1-phenyl-1H-pyrazol-5-yl)-3-(3-(6,7-dimethoxyquinazolin-4-yloxy)phenyl)urea] |  | < 250 nM | C (0.20 < C ≦ 0.40) | 250 to 500 nM | 250 to 500 nM |  | < 250 nM |  | 250 to 500 nM |  |
| COc1cc2ncnc(Sc3cccc(NC(=O)Nc4cc(C(C)(C)C)nn4-c4ccccn4)c3)c2cc1OC [Ex 345, 1-(3-tert-butyl-1-(pyridin-2-yl)-1H-pyrazol-5-yl)-3-(3-(6,7-dimethoxyquinazolin-4-ylthio)phenyl)urea] | > 1000 nM | > 1000 nM | B (0.10 < B ≦ 0.20) | 500 to 1000 nM | > 1000 nM |  | > 1000 nM |  |  |  |
| COc1cc2ncnc(Oc3cccc(NC(=O)Nc4cc(C(C)(C)C)nn4-c4ccc(=O)[nH]c4)c3)c2cc1OC [Ex 317, 1-(3-tert-butyl-1-(6-oxo-1,6-dihydropyridin-3-yl)-1H-pyrazol-5-yl)-3-(3-(6,7-dimethoxyquinazolin-4-yloxy)phenyl)urea] | > 1000 nM | < 250 nM | D (D > 0.40) | > 1000 nM | > 1000 nM | 500 to 1000 nM |  |  |  |  |
| COc1cc2nc(Cl)nc(Oc3cccc(NC(=O)Nc4cc(C(C)(C)C)on4)c3)c2cc1OC [Ex 310, 1-(5-tert-butylisoxazol-3-yl)-3-(3-(2-chloro-6,7-dimethoxyquinazolin-4-yloxy)phenyl)urea] | > 1000 nM |  | A (A ≦ 0.10) | > 1000 nM | > 1000 nM | 500 to 1000 nM |  | 500 to 1000 nM |  |  |
| COc1cc2ncnc(Oc3cccc(NC(=O)Nc4cc(C(C)(C)C)nn4-c4ccnc(C)c4)c3)c2cc1OC [Ex 320, 1-(3-tert-butyl-1-(2-methylpyridin-4-yl)-1H-pyrazol-5-yl)-3-(3-(6,7-dimethoxyquinazolin-4-yloxy)phenyl)urea] | > 1000 nM | < 250 nM | D (D > 0.40) | < 250 nM |  |  | > 1000 nM |  |  |  |
| COc1cc2c(Sc3cccc(NC(=O)Nc4cc(C(C)(C)C)on4)c3)ncnc2cc1OCCN1CCN(CCO)CC1 [Ex 84, 1-(5-tert-butylisoxazol-3-yl)-3-(3-(7-(2-(4-(2-hydroxyethyl)piperazin-1-yl)ethoxy)-6-methoxyquinazolin-4-ylthio)phenyl)urea] |  |  | D (D > 0.40) | < 250 nM | > 1000 nM | 250 to 500 nM |  | < 250 nM | 250 to 500 nM |  |
| COc1cc2ncnc(Sc3cccc(NC(=O)Nc4cc(C(C)C)nn4-c4cccnc4)c3)c2cc1OC [Ex 351, 1-(3-(6,7-dimethoxyquinazolin-4-ylthio)phenyl)-3-(3-isopropyl-1-(pyridin-3-yl)-1H-pyrazol-5-yl)urea] |  | < 250 nM | C (0.20 < C ≦ 0.40) | < 250 nM | 250 to 500 nM |  | < 250 nM |  | 500 to 1000 nM |  |
| COc1cc2ncnc(Oc3cccc(NC(=O)Nc4cc(C(C)(F)F)nn4-c4cccnc4)c3)c2cc1OC [Ex 311, 1-(3-(1,1-difluoroethyl)-1-(pyridin-3-yl)-1H-pyrazol-5-yl)-3-(3-(6,7-dimethoxyquinazolin-4-yloxy)phenyl)urea] | < 250 nM | < 250 nM | C (0.20 < C ≦ 0.40) | 250 to 500 nM | 250 to 500 nM |  | < 250 nM |  |  |  |

From patent US8618289B2 (Ambit Biosciences Corporation, priority 2008, dated 2013)
